Reference: patent US20100267561A1, “HERBICIDAL PYRIDAZINONE DERIVATIVES” (priority 2007, published 2010)

What was measured:
Test in all cases: Test B pre-/postemergence plant response
Type in all cases: in vivo
[1] = tested on: morningglory (Ipomoea coccinea)
Method in brief: (§1)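 Seeds were sown and sprayed preemergence, while plants at 2 to 18 cm (1- to 4-leaf stage) got postemergence sprays. Compounds were formulated in a non-phytotoxic solvent mixture with surfactant. After 13 to 15 days in a greenhouse, injury was rated visually against untreated controls, 0 (no effect) to 100 (complete control).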

[2] = tested on: downy bromegrass (Bromus tectorum)
Method in brief: as §1

corn (Zea mays) = tested on: corn (Zea mays)
Method in brief: as §1

[3] = tested on: common (oilseed) sunflower (Helianthus annuus); settings: Preemergence
Method in brief: as §1

[4] = tested on: bermudagrass (Cynodon dactylon)
Method in brief: as §1

[5] = tested on: green foxtail (Setaria viridis)
Method in brief: as §1

[6] = tested on: catchweed bedstraw (Galium aparine); settings: Preemergence
Method in brief: as §1

[7] = tested on: large crabgrass (Digitaria sanguinalis)
Method in brief: as §1

[8] = tested on: giant foxtail (Setaria faberii)
Method in brief: as §1

wild oat (Avena fatua) = tested on: wild oat (Avena fatua)
Method in brief: as §1

[9] = tested on: velvetleaf (Abutilon theophrasti)
Method in brief: as §1

[10] = tested on: wheat (Triticum aestivum)
Method in brief: as §1

[11] = tested on: blackgrass (Alopecurus myosuroides)
Method in brief: as §1

[12] = tested on: lambsquarters (Chenopodium album)
Method in brief: as §1

[13] = Postemergence, 31 g ai/ha, scale 0 to 100, 0 no effect, 100 complete control
[14] = Postemergence, 62 g ai/ha, scale 0 to 100
[15] = Postemergence, 125 g ai/ha, scale 0 to 100
[16] = Postemergence, 250 g ai/ha, scale 0 to 100
[17] = Preemergence, 31 g ai/ha, 0 to 100 scale, 0 no effect, 100 complete control
[18] = Preemergence, 62 g ai/ha, scale 0 to 100
[19] = Preemergence, 125 g ai/ha, scale 0 to 100
[20] = Preemergence, 250 g ai/ha, scale 0 to 100
[21] = 31 g ai/ha, 0 to 100 scale, 0 no effect, 100 complete control
[22] = 250 g ai/ha, preemergence, 0-100 scale

In the case of Cc1cc(-c2ccc(Br)cc2)nn1-c1c(OC(=O)OC(C)C)cnn(C)c1=O [Compound 6], the “Plant response rating, Morningglory” value [1, 13] is reported as 0, the “Plant response rating, Morningglory” value [1, 14] is reported as 0 and the “Plant response rating, Morningglory” value [1, 15] is reported as 0. For the same compound, the “Plant response rating, Morningglory” value [1, 16] was 50, the “Plant response rating, Morningglory” value [1, 17] was 0 and the “Plant response rating, Morningglory” value [1, 18] was 0. For the same compound, the “Plant response rating, Morningglory” value [1, 19] was 0, the “Plant response rating, Morningglory” value [1, 20] was 0 and the “Plant response rating, Bromegrass, Downy” value [2, 13] was 5. For the same compound, the “Plant response rating, Bromegrass, Downy” value [2, 14] was 5, the “Plant response rating, Bromegrass, Downy” value [2, 15] was 5 and the “Plant response rating, Bromegrass, Downy” value [2, 16] was 10. The “Plant response rating, Bromegrass, Downy” value [2, 17] was 50, the “Plant response rating, Bromegrass, Downy” value [2, 18] was 65 and the “Plant response rating, Bromegrass, Downy” value [2, 19] was 65. The “Plant response rating, Bromegrass, Downy” value ([2]; Preemergence, 250 g ai/ha, scale 0 to 100 (0 no effect, 100 complete control)) was 95, the “Plant response rating, Corn” value (corn (Zea mays); [13]) was 95 and the “Plant response rating, Corn” value (corn (Zea mays); [14]) was 95. The “Plant response rating, Corn” value (corn (Zea mays); [15]) was 100, the “Plant response rating, Corn” value (corn (Zea mays); [16]) was 100 and the “Plant response rating, Corn” value (corn (Zea mays); [17]) was 95. For the same compound, the “Plant response rating, Corn” value (corn (Zea mays); [18]) was 98, the “Plant response rating, Corn” value (corn (Zea mays); [19]) was 98 and the “Plant response rating, Corn” value (corn (Zea mays); [20]) was 100. For the same compound, the “Plant response rating, Sunflower” value [3, 21] was 0, the “Plant response rating, Sunflower” value ([3]; 62 g ai/ha, scale 0 to 100) was 0 and the “Plant response rating, Sunflower” value ([3]; 125 g ai/ha, scale 0 to 100) was 0. The “Plant response rating, Sunflower” value ([3]; 250 g ai/ha, scale 0 to 100) was 0, the “Bermudagrass plant response rating” value [4, 22] was 100 and the “Plant response rating, Bermudagrass” value [4, 13] was 100. The “Plant response rating, Bermudagrass” value [4, 14] was 100, the “Plant response rating, Bermudagrass” value [4, 15] was 100 and the “Plant response rating, Bermudagrass” value [4, 16] was 100. The “Plant response rating, Bermudagrass” value [4, 17] was 100, the “Plant response rating, Bermudagrass” value [4, 18] was 100 and the “Plant response rating, Bermudagrass” value [4, 19] was 100. For the same compound, the “Plant response rating, Foxtail, Green” value [5, 13] was 100, the “Plant response rating, Foxtail, Green” value [5, 14] was 100 and the “Plant response rating, Foxtail, Green” value [5, 15] was 100. The “Plant response rating, Foxtail, Green” value [5, 16] was 100, the “Plant response rating, Foxtail, Green” value [5, 17] was 100 and the “Plant response rating, Foxtail, Green” value [5, 18] was 100. For the same compound, the “Plant response rating, Foxtail, Green” value [5, 19] was 100, the “Plant response rating, Foxtail, Green” value [5, 20] was 100 and the “Plant response rating, Galium” value [6, 21] was 0. For the same compound, the “Plant response rating, Galium” value ([6]; 125 g ai/ha, scale 0 to 100) was 70, the “Plant response rating, Galium” value ([6]; 250 g ai/ha, scale 0 to 100) was 70 and the “Plant response rating, Crabgrass, Large” value [7, 13] was 100. For the same compound, the “Plant response rating, Crabgrass, Large” value [7, 14] was 100, the “Plant response rating, Crabgrass, Large” value [7, 15] was 100 and the “Plant response rating, Crabgrass, Large” value [7, 16] was 100. For the same compound, the “Plant response rating, Crabgrass, Large” value [7, 17] was 98, the “Plant response rating, Crabgrass, Large” value [7, 18] was 100 and the “Plant response rating, Crabgrass, Large” value [7, 19] was 100. The “Plant response rating, Crabgrass, Large” value [7, 20] was 100, the “Plant response rating, Foxtail, Giant” value [8, 13] was 100 and the “Plant response rating, Foxtail, Giant” value [8, 14] was 100. For the same compound, the “Plant response rating, Foxtail, Giant” value [8, 15] was 100, the “Plant response rating, Foxtail, Giant” value [8, 16] was 100 and the “Plant response rating, Foxtail, Giant” value [8, 17] was 100. The “Plant response rating, Foxtail, Giant” value [8, 18] was 100, the “Plant response rating, Foxtail, Giant” value [8, 19] was 100 and the “Plant response rating, Foxtail, Giant” value [8, 20] was 100. For the same compound, the “Plant response rating, Oat, Wild” value (wild oat (Avena fatua); [13]) was 100, the “Plant response rating, Oat, Wild” value (wild oat (Avena fatua); [14]) was 100 and the “Plant response rating, Oat, Wild” value (wild oat (Avena fatua); [15]) was 100. The “Plant response rating, Oat, Wild” value (wild oat (Avena fatua); [16]) was 100, the “Plant response rating, Oat, Wild” value (wild oat (Avena fatua); [17]) was 50 and the “Plant response rating, Oat, Wild” value (wild oat (Avena fatua); [18]) was 50. The “Plant response rating, Oat, Wild” value (wild oat (Avena fatua); [19]) was 85, the “Plant response rating, Oat, Wild” value (wild oat (Avena fatua); [20]) was 85 and the “Plant response rating, Velvetleaf” value [9, 13] was 0. For the same compound, the “Plant response rating, Velvetleaf” value [9, 14] was 0, the “Plant response rating, Velvetleaf” value [9, 15] was 0 and the “Plant response rating, Velvetleaf” value [9, 16] was 10. For the same compound, the “Plant response rating, Velvetleaf” value [9, 17] was 0, the “Plant response rating, Velvetleaf” value [9, 18] was 0 and the “Plant response rating, Velvetleaf” value [9, 19] was 0. For the same compound, the “Plant response rating, Velvetleaf” value [9, 20] was 40, the “Plant response rating, Wheat” value [10, 13] was 90 and the “Plant response rating, Wheat” value [10, 14] was 100. The “Plant response rating, Wheat” value [10, 15] was 100, the “Plant response rating, Wheat” value [10, 16] was 100 and the “Plant response rating, Wheat” value [10, 17] was 35. For the same compound, the “Plant response rating, Wheat” value [10, 18] was 80, the “Plant response rating, Wheat” value [10, 19] was 90 and the “Plant response rating, Wheat” value [10, 20] was 90. For the same compound, the “Blackgrass plant response rating” value [11, 22] was 100, the “Plant response rating, Blackgrass” value [11, 13] was 100 and the “Plant response rating, Blackgrass” value [11, 14] was 100. The “Plant response rating, Blackgrass” value [11, 15] was 100, the “Plant response rating, Blackgrass” value [11, 16] was 100 and the “Plant response rating, Blackgrass” value [11, 17] was 80. For the same compound, the “Plant response rating, Blackgrass” value [11, 18] was 100, the “Plant response rating, Blackgrass” value [11, 19] was 100 and the “Plant response rating, Lambsquarters” value [12, 13] was 0. For the same compound, the “Plant response rating, Lambsquarters” value [12, 14] was 0, the “Plant response rating, Lambsquarters” value [12, 15] was 20 and the “Plant response rating, Lambsquarters” value [12, 16] was 70. The “Plant response rating, Lambsquarters” value [12, 17] was 0, the “Plant response rating, Lambsquarters” value [12, 19] was 85 and the “Plant response rating, Lambsquarters” value [12, 20] was 95.
